Source: patent US8906925B2, “Pyrido[4,3-B]indoles containing rigid moieties” (Medivation Technologies, Inc., priority 2008, dated 2014)
Read-outs that look alike come from different tables or passages of the source.

Key:
[1] = target: human dopamine D2L receptor (Homo sapiens, UniProt P14416); assay: GTPγS functional assay, dopamine D2L (CHO-K1 membrane extracts); format: biochemical; design: host or cells: CHO-K1 co-expressing mitochondrial apoaequorin and Gα16; settings: for inhibition at 0.005 µM: antagonist concentration 5 nM; for inhibition at 0.05 µM: antagonist concentration 50 nM; for inhibition at 0.5 µM: antagonist concentration 500 nM; for inhibition at 5 µM: antagonist concentration 5000 nM; for inhibition at 15 µM: antagonist concentration 15000 nM
Chain of human dopamine D2L receptor (P14416 whole entry): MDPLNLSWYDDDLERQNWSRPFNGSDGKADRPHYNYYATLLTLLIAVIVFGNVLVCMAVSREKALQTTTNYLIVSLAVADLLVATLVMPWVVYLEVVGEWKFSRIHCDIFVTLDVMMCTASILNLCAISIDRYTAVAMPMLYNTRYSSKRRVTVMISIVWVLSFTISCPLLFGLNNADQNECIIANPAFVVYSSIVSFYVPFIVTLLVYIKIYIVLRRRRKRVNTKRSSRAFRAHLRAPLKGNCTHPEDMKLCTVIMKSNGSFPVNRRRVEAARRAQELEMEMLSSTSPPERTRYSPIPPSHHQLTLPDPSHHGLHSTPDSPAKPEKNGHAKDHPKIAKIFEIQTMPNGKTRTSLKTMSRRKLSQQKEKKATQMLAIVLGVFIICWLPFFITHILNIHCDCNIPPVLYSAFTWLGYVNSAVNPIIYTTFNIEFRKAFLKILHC
Source text: To study the functional activity of compounds of the invention on the human recombinant dopamine D2L with Aequorin, GTPγS and cAMP functional assays and on the human recombinant serotonin 5-HT2A receptor with Aequorin, CHO-K1 cell lines expressing D2L or 5-HT2A recombinant receptor, mitochondrial apoaequorin and Gα16 were used for the Aequorin assay. CHO-K1 cell line expressing the recombinant D2L receptor was used for the cAMP assay and was amplified to prepare membranes used for the GTPγS assay.
GTPγS Assay Procedure: Assay buffer [20 mM HEPES pH 7.4; 100 mM NaCl, 10 μg/mL saponin, 30 mM MgCl2]; Membranes [Recombinant CHO-K1-D2L membrane extracts thawed on ice and diluted in assay buffer to give 1 mg/mL (10 μg/10 μL) and kept on ice]; GDP [diluted in assay buffer to give […] final concentration]; Beads [PVT-WGA (Amersham, RPNQ0001), diluted in assay buffer at 25 mg/mL (0.25 mg/10 μL)]; GTPγ35S [(PerkinElmer NEG030X), diluted in assay buffer to give 0.1 nM final concentration]; Ligand [Quinpirol (Tocris, 1061) as reference agonist and haloperidol (Tocris, 0931) as reference antagonist, diluted in assay buffer]. Membranes were mixed with GDP (volume:volume) and incubated for at least 15 min on ice. In parallel, GTPγ[^35S] was mixed with the beads (volume:volume) just before starting the reaction. For agonist testing, the following reagents are successively added in the wells of an Optiplate (Perkin Elmer): 50 μL of test or reference ligand, 20 μL of the membranes:GDP mix, 10 μL of assay buffer and 20 μL of the GTPγ[^35S]:beads mix. For antagonist testing, the following reagents were successively added in the wells of an Optiplate (Perkin Elmer): 50 μL of test or reference ligand, 20 μL of the membranes:GDP mix, and then after an incubation of 15 min at room temperature, 10 μL of reference agonist at historical EC80 concentration and 20 μL of the GTPγ[^35S]:beads mix. The plates were covered with a top seal, mixed on an orbital shaker for 2 min, and then incubated for 1 h at room temperature. Then the plates were centrifuged for 10 min at 2000 rpm, incubated at room temperature 1 h and counted for 1 min/well with a Perkin Elmer TopCount reader. Compounds were tested for antagonist activity at the human dopamine D2L receptor (FAST-0101G) at the following nanomolar concentrations, in duplicate: Antagonist (nM): 5, 15, 50, 150, 500, 1500, 5000, 15000.

Long-Evans rats = assay: 5-choice serial reaction time task (5CSRTT); format: in vivo, rat; settings: 0.1, 0.3 and 1.0 mg/kg p.o.
Source text: Attention and impulsivity are characteristic of several disease states. The continuous performance test (CPT), used in humans, is capable of detecting attention deficts in a number of disorders, including attention deficit hyperactivity disorder, schizophrenia and mild cognitive impairment. The pre-clinical analogue of the CPT is the 5-choice serial reaction time task (5CSRTT). In this operant-based test, rats are required to be attentive and withhold responding while they monitor 5 apertures for the appearance of a brief stimulus light in one of the apertures. The brief illumination of the stimulus light in the 5CSRTT is analogous to the appearance of the “correct” letters in the CPT in humans. Upon observing the stimulus light, the rat must nose-poke in the corresponding aperture to receive a food reward. The 5CSRTT allows the measurement of similar behavioral responses as the CPT, including accuracy, speed of responding, impulsive and compulsive responding.
Thirteen male Long-Evans rats (275-300 g) were obtained from Harlan Laboratories, Indianapolis, Ind. At the time of testing for the current study, the rats were approximately 16-18 months old. Upon arrival, the rats were assigned unique identification numbers (tail marked). […]

[2] = antagonist concentration 150 nM
[3] = antagonist concentration 1500 nM
[4] = 0.03, 0.1, 0.3, 1 and 3 mg/kg p.o.
[5] = 0.03, 0.1, 0.3, 1, 3 and 10 mg/kg p.o.

Description for Sprague Dawley rats: The two-trial object recognition paradigm developed by Ennaceur and Delacour in the rat was used as a model of episodic short term memory.
The experiments were carried out using 174-186 male Sprague Dawley rats (Centre d'Elevage R. Janvier, B. P. 55, 53940 Le Genest-Saint-Isle, F.). 143-146 rats met inclusion criteria described in the experimental procedure. In addition, 24 satellite animals were used for pharmacokinetic analysis. The rats (main study and pharmacokinetic study) weighed between 233 and 283 g (6-7 weeks old) at the beginning of the experiments. […] Rats were allowed to acclimate to environmental conditions for at least 5 days prior to experimentation. Rats were numbered by marking their tail with indelible markers.
Each solution was prepared fresh each day of dosing. […] No corrective factor is required. […] PEG200 was dissolved in water for injection. The volume of administration was 10 mL/kg body weight for the oral route of administration and 5 mL/kg body weight for intraperitoneal route of administration. Each solution was prepared fresh each day of dosing.
The experimental arena is a square wooden box (60×60×40 cm) painted dark blue, with 15×15 cm black painted squares under a clear plexiglass floor. The arena and the objects were cleaned using water between each trial in order to avoid odour trails left by rats. The arena was placed in a dark room illuminated only by halogen lamps oriented towards the ceiling and giving an uniform dim light in the box (around 60 lux). Animals to be tested were placed in the experimental room at least 30 min before testing.
Rats were submitted to two trials spaced by an intertrial interval of 24 h. During the first trial (acquisition trial, T1), rats were placed in the arena containing 2 identical objects and time required by each animal to complete 15 sec. of object exploration was determined with a cut-off time of 4 min. Exploration was considered to be directing the nose at a distance less than 2 cm from the object and/or touching the object. For the second trial (testing trial, T2), one of the objects presented in the first trial was replaced by an unknown object (novel object), rats were placed back in the arena for 3 min and exploration of each object was determined. For both T1 and T2, locomotor activity of rats was scored.
Using group numbers of 18, rats were randomized to constitute the following groups: 1) Vehicle (5% PEG200 in water) p.o.; 2) Compound No. 88 or 90 (0.03 mg/kg) p.o.; 3.
The following parameters were measured: 1) Time required to achieve 15 sec. of object exploration on T1 (sec.); 2) Locomotor activity on T1 (number of crossed lines); 3) Time spent in active exploration of the familiar object on T2 (sec.)=TF; 4) Time spent in active exploration of the novel object on T2 (sec.)=TN; 5) Locomotor activity on T2 (number of crossed lines).
All parameters were analysed using SAS software (version 8.2). Statistical tests were performed with an alpha level of 0.05.

SMILES	inhibition at 0.005 µM [1] [%]	inhibition at […] ([1]; antagonist concentration 15 nM) [%]	inhibition at 0.05 µM [1] [%]	inhibition at […] [1, 2] [%]	inhibition at 0.5 µM [1] [%]	inhibition at […] [1, 3] [%]	inhibition at 5 µM [1] [%]	inhibition at 15 µM [1] [%]	impulsivity-like and perserverative-like behavior (Long-Evans rats)	memory performance (TN−TF and RI) compared to vehicle, ANOVA + Dunnett's test (Sprague Dawley rats; 0.1 mg/kg p.o.)	memory performance (TN−TF and RI) compared to vehicle, ANOVA + Dunnett's test (Sprague Dawley rats; 1 mg/kg p.o.)	memory performance (TN−TF and RI values) (Sprague Dawley rats; [4])	number of "good learners" (Δ≧5 sec.) (Sprague Dawley rats; [4])	locomotor activity assessed during T1 and T2 (Sprague Dawley rats; rat, in vivo, po, 3 mg/kg)	memory performance (TN−TF and RI) compared to vehicle, ANOVA + Dunnett's test (Sprague Dawley rats; 0.3 mg/kg p.o.)	memory performance (TN−TF and RI values) (Sprague Dawley rats; [5])	number of "good learners" (Δ≧5 sec.) (Sprague Dawley rats; [5])	cognitive enhancing activity (delay of onset of natural forgetting) (Sprague Dawley rats; single oral administration 0.03, 0.1, 0.3, 1, 3 and 10 mg/kg, 30 min before T1)
C/C(=C\n1c2c(c3cc(Cl)ccc31)CN(C)CC2)c1ccc(F)cc1 [Compound 83, (E)-8-chloro-5-(2-(4-fluorophenyl)prop-1-enyl)-2,3,4,5-tetrahydro-2-methyl-1H-pyrido[4,3-b]indole]	51.8	90	104	109	118	113	111	105	–	–	–	–	–	–	–	–	–	–
C/C(=C\n1c2c(c3cc(Cl)ccc31)CN(C)CC2)c1ccncc1 [Compound 90, (E)-8-chloro-2,3,4,5-tetrahydro-2-methyl-5-(2-(pyridin-4-yl)prop-1-enyl)-1H-pyrido[4,3-b]indole]	59	101	106	109	109	116	112	116	reduces	reached the threshold of statistical significance	reached the threshold of statistical significance	improved	confirmed the cognitive enhancing activity	no statistically significant effects	–	–	–	–
C/C(=C\n1c2c(c3cc(C)ccc31)CN(C)CC2)c1ccncc1 [Compound 88, (E)-2,3,4,5-tetrahydro-2,8-dimethyl-5-(2-(pyridin-4-yl)prop-1-enyl)-1H-pyrido[4,3-b]indole]	–	–	–	–	–	–	–	–	–	–	reached the threshold of statistical significance	–	–	–	reached the threshold of statistical significance	improved	confirmed the cognitive enhancing activity	displayed a cognitive enhancing activity
